Laboratory results from patent US20040181075A1, “Process of making chalcone derivatives” (priority 2002, published 2004).

melting point	Compound
231 to 232 °C (dec.)	COc1cc(OC)c(-c2cc3ccccc3s2)cc1/C=C/C(=O)c1ccc(C(=O)O)cc1 [Example 3, 4-[(2E)-3-(5-benzo[b]thien-2-yl-2,4-dimethoxyphenyl)-1-oxo-2-propenyl]-benzoic acid]
176 to 178 °C	COc1cc(OC)c(-c2cc3ccccc3s2)cc1/C=C\C(=O)c1ccc(C(=O)O)cc1 [Example 66, 4-[(2Z)-3-(5-benzo[b]thien-2-yl-2,4-dimethoxyphenyl)-1-oxo-2-propenyl]-benzoic acid]
